The source of these data is US10941157B2, “Pesticidal compositions and uses thereof” (Gilead Apollo, LLC, priority 2015, dated 2021).

Format in all cases: cell-based
Experiment [1] deals with Fusarium moniliforme (Fm). The experiment in a line: In vitro pathogen growth inhibition assay, Fm. To be noted: Fusarium verticillioides. The gist of the method:
(§1)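 Value reported is the compound concentration reaching ≥90% growth inhibition, from OD readings at 24 and 48 h after blank subtraction, confirmed visually. Inoculum was spores diluted in 17% V8 medium, except Rs, using 1.5 mm mycelial plugs in ¼ PDB; actual compound concentration corrected via OD600.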

Experiment [2] relates to Collectotrichum graminicola (Cg). The experiment in a line: In vitro pathogen growth inhibition assay, Cg. To be noted: 48 h. The gist of the method: as §1
The subject of a further experiment is Botrtyis cinerea (Bc). The experiment in a line: In vitro pathogen growth inhibition assay, Bc. To be noted: 48 h. The gist of the method:
as §1

The subject of the next experiment is Diplodia maydis (Dm). The experiment in a line: In vitro pathogen growth inhibition assay, Dm. To be noted: Stenocarpella maydis, 48 h. The essentials: (§2)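 Spores of Dm, Fv and Pc were diluted in 17% V8 liquid medium; Rs used 1.5 mm mycelial plugs in ¼ PDB. Compounds from 2.5 mg/ml DMSO stocks were combined with inoculum, growth was read by OD600 at 24 and 48 h with blank subtraction, and the reported value is the concentration giving ≥90% inhibition.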

The test system of experiment [3] is Phytophthora capsici (Pc). The experiment in a line: In vitro pathogen growth inhibition assay, Pc. Particulars: 48 h. The gist of the method: as §2
In experiment [4] the test system is Fusarium virguliforme (Fv). The experiment in a line: In vitro pathogen growth inhibition assay, Fv. The essentials: as §2
In the next experiment the test system is Septoria tritici (St). The experiment in a line: In vitro pathogen growth inhibition assay, St. To be noted: Zymoseptoria tritici, 48 h. The essentials: as §1
A further experiment relates to Rhizoctonia solani (Rs). The experiment in a line: In vitro pathogen growth inhibition assay, Rs (mycelial plugs). Particulars: Rhizoctonia solani, 48 h. The essentials: as §2
The mark [5] stands for this setting: ≥90% growth inhibition, 48 hours, vs 2% DMSO control, read-out: Compound Concentration (ppm) sufficient for ≥90% inhibition of Fm.
Where [6] appears, read: ≥90% growth inhibition, 48 hours, vs 2% DMSO control, read-out: Compound Concentration (ppm) sufficient for ≥90% inhibition of Cg.
The mark [7] stands for this setting: ≥90% growth inhibition, 48 hours, vs 2% DMSO control, read-out: Compound Concentration (ppm) sufficient for ≥90% inhibition of Bc.
Where [8] appears, read: ≥90% growth inhibition, 48 hours, vs 2% DMSO control, read-out: Compound Concentration (ppm) sufficient for ≥90% inhibition of Dm.
The mark [9] stands for this setting: ≥90% growth inhibition, 48 hours, vs 2% DMSO control, read-out: Compound Concentration (ppm) sufficient for ≥90% inhibition of Pc.
[10] abbreviates: ≥90% growth inhibition, 48 hours, vs 2% DMSO control, read-out: Compound Concentration (ppm) sufficient for ≥90% inhibition of Fv.
[11] abbreviates: ≥90% growth inhibition, 48 hours, vs 2% DMSO control, read-out: Compound Concentration (ppm) sufficient for ≥90% inhibition of St.
[12] abbreviates: ≥90% growth inhibition, mycelial plugs, 48 hours, vs 2% DMSO control, read-out: Compound Concentration (ppm) sufficient for ≥90% inhibition of Rs.
Where [13] appears, read: concentration sufficient to ≥90% inhibition of growth, 48 hours vs 2% DMSO control, read-out: Compound Concentration (ppm) for ≥90% inhibition, Fm.
The mark [14] stands for this setting: concentration sufficient to ≥90% inhibition of growth, 48 hours vs 2% DMSO control, read-out: Compound Concentration (ppm) for ≥90% inhibition, Cg.
[15] abbreviates: concentration sufficient to ≥90% inhibition of growth, 48 hours vs 2% DMSO control, read-out: Compound Concentration (ppm) for ≥90% inhibition, Bc.
Setting [16] is: concentration sufficient to ≥90% inhibition of growth, 48 hours vs 2% DMSO control, read-out: Compound Concentration (ppm) for ≥90% inhibition, Dm.
[17] abbreviates: concentration sufficient to ≥90% inhibition of growth, 48 hours vs 2% DMSO control, read-out: Compound Concentration (ppm) for ≥90% inhibition, Pc.
The mark [18] stands for this setting: concentration sufficient to ≥90% inhibition of growth, 48 hours vs 2% DMSO control, read-out: Compound Concentration (ppm) for ≥90% inhibition, Fv.
[19] abbreviates: concentration sufficient to ≥90% inhibition of growth, 48 hours vs 2% DMSO control, read-out: Compound Concentration (ppm) for ≥90% inhibition, St.
Where [20] appears, read: concentration sufficient to ≥90% inhibition of growth, 48 hours vs 2% DMSO control, read-out: Compound Concentration (ppm) for ≥90% inhibition, Rs.

SMILES strings stand for the structures. ≈ marks a conversion by molar mass, not a printed value. Where two headings read alike, the source gives them in different places.

`COc1ccccc1[C@H](Cn1c(=O)n(C(C)(C)C(=O)N2CCCC2)c(=O)c2c(C)c(-n3nccn3)sc21)OCCC#N` [Compound I-196]: the IC90 in experiment [1] (setting [5]) is 0.4 µg/mL (≈ 0.676 µM); in experiment [2] (setting [6]) it was 10 µg/mL (≈ 16.9 µM); in the experiment on Botrtyis cinerea (Bc) (setting [7]), 2 µg/mL (≈ 3.38 µM); in the experiment on Diplodia maydis (Dm) (setting [8]) it was 10 µg/mL (≈ 16.9 µM); in experiment [3] (setting [9]), greater than 50 µg/mL; in experiment [4] (setting [10]) it was 2 µg/mL (≈ 3.38 µM). Moreover, the IC90 in the experiment with Septoria tritici (St) (setting [11]) is greater than 50 µg/mL; in the experiment with Rhizoctonia solani (Rs) (setting [12]), 2 µg/mL (≈ 3.38 µM).
As to `COc1ccc(F)cc1[C@H](Cn1c(=O)n([C@@H](C)C(=O)NC(C)C)c(=O)c2c(C)c(-n3nccn3)sc21)OCCC#N` [Compound I-197], the IC90 was 0.4 µg/mL (≈ 0.685 µM) in experiment [1] (setting [5]); 10 µg/mL (≈ 17.1 µM) in experiment [2] (setting [6]); 0.4 µg/mL (≈ 0.685 µM) with Botrtyis cinerea (Bc) (setting [7]); 10 µg/mL (≈ 17.1 µM) in the experiment on Diplodia maydis (Dm) (setting [8]); greater than 50 µg/mL in experiment [3] (setting [9]); no less than 2 µg/mL in experiment [4] (setting [10]). Moreover, the IC90 is no less than 50 µg/mL with Septoria tritici (St) (setting [11]) and 0.4 µg/mL (≈ 0.685 µM) with Rhizoctonia solani (Rs) (setting [12]).
`COc1ccc(F)cc1[C@H](Cn1c(=O)n([C@@H](C)C(N)=O)c(=O)c2c(C)c(-n3nccn3)sc21)OCCC#N` [Compound I-199]: the IC90 in experiment [1] (setting [13]) was 10 µg/mL (≈ 18.5 µM); in experiment [2] (setting [14]) it was 50 µg/mL (≈ 92.3 µM); with Botrtyis cinerea (Bc) (setting [15]), 10 µg/mL (≈ 18.5 µM); with Diplodia maydis (Dm) (setting [16]), 50 µg/mL (≈ 92.3 µM); in experiment [3] (setting [17]), greater than 50 µg/mL; in experiment [4] (setting [18]), 10 µg/mL (≈ 18.5 µM). For the same molecule, the IC90 was greater than 50 µg/mL with Septoria tritici (St) (setting [19]) and 50 µg/mL (≈ 92.3 µM) with Rhizoctonia solani (Rs) (setting [20]).
Regarding `COc1ccc(F)cc1[C@H](Cn1c(=O)n([C@H](C)C(N)=O)c(=O)c2c(C)c(-n3nccn3)sc21)OCCC#N` [Compound I-200], the IC90 in experiment [1] (setting [5]) is 2 µg/mL (≈ 3.69 µM); in experiment [2] (setting [6]), greater than 50 µg/mL; with Botrtyis cinerea (Bc) (setting [7]), 2 µg/mL (≈ 3.69 µM); with Diplodia maydis (Dm) (setting [8]), greater than 50 µg/mL; in experiment [3] (setting [9]), greater than 50 µg/mL; in experiment [4] (setting [10]), 2 µg/mL (≈ 3.69 µM). Also, the results for the IC90 in the experiment with Septoria tritici (St) (setting [11]) and in the experiment with Rhizoctonia solani (Rs) (setting [12]) were greater than 50 µg/mL and 2 µg/mL (≈ 3.69 µM), respectively.
Take `COc1ccc(F)cc1[C@H](Cn1c(=O)n([C@@H](C)C(=O)N2CCCC2)c(=O)c2c(C)c(-n3nccn3)sc21)OCCC#N` [Compound I-201]: the IC90 is 0.4 µg/mL (≈ 0.672 µM) in experiment [1] (setting [5]); 10 µg/mL (≈ 16.8 µM) in experiment [2] (setting [6]); 2 µg/mL (≈ 3.36 µM) in the experiment on Botrtyis cinerea (Bc) (setting [7]); no less than 2 µg/mL with Diplodia maydis (Dm) (setting [8]); greater than 50 µg/mL in experiment [3] (setting [9]); no less than 0.4 µg/mL in experiment [4] (setting [10]). Further, the figures for the IC90 in the experiment on Septoria tritici (St) (setting [11]) and with Rhizoctonia solani (Rs) (setting [12]) were greater than 50 µg/mL and 0.08 µg/mL (≈ 0.134 µM), respectively.
For the molecule `COc1ccc(F)cc1[C@H](Cn1c(=O)n(C(C)(C)C(=O)N2CCCC2)c(=O)c2c(C)c(-n3cccn3)sc21)OCCC#N` [Compound I-203], the IC90 in experiment [1] (setting [13]) was 10 µg/mL (≈ 16.4 µM); in experiment [2] (setting [14]), 50 µg/mL (≈ 82.1 µM); in the experiment with Botrtyis cinerea (Bc) (setting [15]), 50 µg/mL (≈ 82.1 µM); in the experiment with Diplodia maydis (Dm) (setting [16]), 50 µg/mL (≈ 82.1 µM); in experiment [3] (setting [17]), greater than 50 µg/mL; in experiment [4] (setting [18]) it was 50 µg/mL (≈ 82.1 µM). Also, the IC90 is greater than 50 µg/mL in the experiment on Septoria tritici (St) (setting [19]) and 10 µg/mL (≈ 16.4 µM) in the experiment with Rhizoctonia solani (Rs) (setting [20]).
With `COc1ccc(F)cc1[C@H](Cn1c(=O)n([C@@H](C)C(=O)N(C)C(C)C)c(=O)c2c(C)c(-n3nccn3)sc21)OCCC#N` [Compound I-204], the IC90 in experiment [1] (setting [5]) was 0.4 µg/mL (≈ 0.669 µM); in experiment [2] (setting [6]) it was 10 µg/mL (≈ 16.7 µM); with Botrtyis cinerea (Bc) (setting [7]), 2 µg/mL (≈ 3.35 µM); with Diplodia maydis (Dm) (setting [8]), 2 µg/mL (≈ 3.35 µM); in experiment [3] (setting [9]), greater than 50 µg/mL; in experiment [4] (setting [10]) it was 2 µg/mL (≈ 3.35 µM). In addition, the IC90 with Septoria tritici (St) (setting [11]) was greater than 50 µg/mL; with Rhizoctonia solani (Rs) (setting [12]), 2 µg/mL (≈ 3.35 µM).
In the case of `CNC(=O)C(C)(C)n1c(=O)c2c(C)c(-n3nccn3)sc2n(C[C@H](OCCC#N)c2cc(F)ccc2OC)c1=O` [Compound I-207], the IC90 was 0.08 µg/mL (≈ 0.14 µM) in experiment [1] (setting [5]); 10 µg/mL (≈ 17.6 µM) in experiment [2] (setting [6]); 2 µg/mL (≈ 3.51 µM) with Botrtyis cinerea (Bc) (setting [7]); no less than 2 µg/mL in the experiment on Diplodia maydis (Dm) (setting [8]); greater than 50 µg/mL in experiment [3] (setting [9]); 2 µg/mL (≈ 3.51 µM) in experiment [4] (setting [10]). In addition, the IC90 in the experiment with Septoria tritici (St) (setting [11]) is greater than 50 µg/mL; with Rhizoctonia solani (Rs) (setting [12]), 0.08 µg/mL (≈ 0.14 µM).
